We go through 9 molecules from US4745111A, “Anti-anxiety, anti-agitation, and anti-sleepless states 4-substituted 10-cyanomethylenethieno-[4,3-e]benzoazepine derivatives, compositions, and methods of use therefor” (priority 1985, dated 1988).

Assay [1] deals with orientation hypermotility. Description: Sedative action in the mouse (inhibition of orientation hypermotility). To be noted: for ED50: Mus musculus, 0.5 h, female NMRI mice, oral, dose giving 50% reduction in orientation hypermotility, measured from 30 min after administration over 30 min; for Sedative action (in words): comparison of cis/trans isomers and with comparative substance. The class given is in vivo, mouse (female NMRI). On the procedure:
The substances are administered orally to 4-8 groups of female NMRI mice, each group comprising 3 mice. The orientation hypermotility induced by a new environment was determined photoelectrically 30 minutes after administration of the substances, over a period of 30 minutes.
The ED50 %, i.e. the dose which produces a 50% reduction in orientation hypermotility compared to placebo-treated control animals, is determined.

For another assay, the system named is apomorphine. Kind of assay: Apomorphine antagonistic action (antidopaminergic action), climbing in mice. The class given is in vivo, mouse. The conditions noted are these: for ED50: Mus musculus, po, apomorphine 1.21 mg/kg s.c., dose reducing climbing scores by 50% vs control, read-out: Antimonaminergic action: Apomorphine antagonism, mouse, ED50 %; for Antimonaminergic action (in words): apomorphine (mouse) and L-5HTP (rat) antagonism together, comparison of isomers and with comparative substance. On the procedure: In mice kept in a suitable environment (e.g. a wiremesh cage), apomorphine (1.21 mg/kg, administered subcutaneously) leads to increased climbing. The animals are observed for 30 minutes after administration of apomorphine, and the climbing is quantified every 2 minutes with the aid of a score. The test substances are administered perorally 60 minutes […] administration of apomorphine. The ED50 % is calculated as the dose which reduces the scores by 50% compared with a control group.

Another assay has as its system L-5HTP. Kind of assay: L-5-HTP antagonism (serotonin antagonism) in the rat. The conditions noted are these: po, read-out: Antimonaminergic action: L-5HTP antagonism, rat, ED50 %. The class given is in vivo. On the procedure: In the rat (316 mg/kg, administered intraperitoneally), L-5-[…] (L-5HTP), a prodrug for serotonin, leads to signs of agitation, such as shaking of the head, tremors and movements of the front feet. The animals are observed for 1 hour after administration of L-5HTP, and the symptoms occurring are quantified every 10 minutes with the aid of a score. The test substances are administered perorally 1 hour before L-5HTP. The ED50 % is calculated as the dose which produces on average a 50% reduction in the scores observed for a control group.

A further assay has as its system physostigmin. Description: Anticholinergic action (protection from physostigmin lethality) in the mouse. It counts as in vivo, mouse (female NMRI). To be noted: for ED50: Mus musculus, po, read-out: Anticholinergic action, mouse, ED50 %; for Anticholinergic action (in words): comparison of isomers and with comparative substance. On the procedure:
A lethal dose (0.825 mg/kg) of physostigmin is administered subcutaneously to groups of 10 female NMRI mice. The test substances are administered orally 30 minutes before administration of physostigmin. The ED50 % is determined as the dose of substance which protects 50% of the animals from death due to physostigmin.

Where [2] appears, read: L-5HTP 316 mg/kg i.p., substance p.o. 1 hour before, 50% reduction in scores.

One may read the ED50 as the dose at which the effect has come halfway, by size or by number of responders.

Structures are written as SMILES. Entries after “also recorded” stand apart in the source; their conditions may differ. Like-named read-outs stand apart in the source and are kept apart here.

`CN1CCN(C2=Nc3ccccc3C(=CC#N)c3cscc32)CC1` (mixture of isomers) [Example 1, cis,trans-10-cyanomethylene-4-(4-methylpiperazin-1-yl)-thieno[4,3-e]benzoazepine]: the median effective dose (ED50) in assay [1] stood at 0.89 mg/kg; in the assay with apomorphine it was 1.7 mg/kg; with L-5HTP (setting [2]), 0.77 mg/kg; in the assay with physostigmin it was 15.8 mg/kg.
On the same counts, the results for `CN1CCN(C2=Nc3cc(Cl)ccc3C(=CC#N)c3cscc32)CC1` (mixture of isomers) [Example 3, cis,trans-7-chloro-10-cyanomethylene-4-(4-methylpiperazin-1-yl)-thieno[4,3-e]benzoazepine] are 0.89 mg/kg, approximately 2 mg/kg, 0.8 mg/kg and more than 21.5 mg/kg.
The matching figures for `CN1CCN(C2=Nc3cc(F)ccc3C(=CC#N)c3cscc32)CC1` (mixture of isomers) [Example 4, cis,trans-7-fluoro-10-cyanomethylene-4-(4-methylpiperazin-1-yl)-thieno[4,3-e]benzoazepine]: 3.27 mg/kg, approximately 2 mg/kg, 1 mg/kg and approximately 21 mg/kg.
On the same counts, the results for `Cc1ccc2c(c1)N=C(N1CCN(C)CC1)c1cscc1C2=CC#N` (mixture of isomers) [Example 5, cis,trans-7-methyl-10-cyanomethylene-4-(4-methylpiperazin-1-yl)-thieno[4,3-e]benzoazepine] are 3.75 mg/kg, approximately 2.1 mg/kg, 1.4 mg/kg and more than 21.5 mg/kg.
Consider `CCN1CCN(C2=Nc3ccccc3C(=CC#N)c3cscc32)CC1` (mixture of isomers) [Example 9, cis,trans-10-cyanomethylene-4-(4-ethylpiperazin-1-yl)-thieno[4,3-e]benzoazepine], for which the ED50 in assay [1] is 0.81 mg/kg; in the assay with apomorphine it was 1 mg/kg; in the assay on physostigmin, more than 10 mg/kg.
For the molecule `CN1CCN(C2=Nc3ccccc3/C(=C\C#N)c3cscc32)CC1` [1 (trans), trans-10-cyanomethylene-4-(4-methylpiperazin-1-yl)-thieno[4,3-e]benzoazepine], the ED50 in assay [1] turned out to be 5.1 mg/kg; in the assay with apomorphine it was 10.9 mg/kg; in the assay on L-5HTP (setting [2]) it was 33 mg/kg; with physostigmin it was 5.2 mg/kg. Besides, the “Sedative action (in words)” value in assay [1] is reported as “fairly weak”. For the same molecule, the “Antimonaminergic action (in words)” value in the assay on apomorphine is on record as “fairly weak”. Moreover, the “Anticholinergic action (in words)” value in the assay on physostigmin is “predominates; also recorded: stronger than that of the comparative substances”.
Take `CN1CCN(C2=Nc3cc(Cl)ccc3Nc3ccccc32)CC1` [Clozapine, clozapine, reference compound]: the ED50 in assay [1] stood at 3.8 mg/kg; in the assay on apomorphine it was 11.3 mg/kg; in the assay with L-5HTP (setting [2]), 6.3 mg/kg.
In the case of `CN1CCN(C2=Nc3ccccc3/C(=C/C#N)c3cscc32)CC1` [Example 1 (cis), cis-10-cyanomethylene-4-(4-methylpiperazin-1-yl)-thieno[4,3-e]benzoazepine], in assay [1], the 50% effect level (ED50) was put at a dose of 0.35 mg/kg and the “Sedative action (in words)” value is listed as “displayed preferentially by the cis isomer”. Moreover, in the assay on apomorphine, the ED50 was 1 mg/kg and the “Antimonaminergic action (in words)” value is given as “displayed preferentially by the cis isomer”. Also, the ED50 in the assay with L-5HTP (setting [2]) worked out at 1 mg/kg. Further, in the assay with physostigmin, the ED50 was more than 10 mg/kg and the “Anticholinergic action (in words)” value is “greatly reduced”.
For the molecule `CN1CCN(C2=Nc3c(Cl)cccc3/C(=C\C#N)c3cscc32)CC1` [Example 16, trans-6-chloro-10-cyanomethylene-4(4-methylpiperazin-1-yl)-thieno[4,3-e]benzoazepine], the 50% effective dose (ED50) is approximately 3 mg/kg in assay [1], 1 mg/kg with L-5HTP and more than 10 mg/kg in the assay with physostigmin.
